Counter-ions that a name gives are not always drawn.
How the values were obtained:
[1] = target: T1, human TYK2 kinase domain (JH1) (Homo sapiens, UniProt P29597); assay: JH1 biochemical assay for TYK2 (ADP-Glo kinase assay, recombinant JH1 catalytic domain, JAK3-974 peptide, 10 μM ATP)
T1 construct: recombinantly generated catalytic kinase (also known as JH1) domain of human JAK1, JAK2, JAK3 and TYK2
T1 sequence (P29597 897-1176 limits assumed): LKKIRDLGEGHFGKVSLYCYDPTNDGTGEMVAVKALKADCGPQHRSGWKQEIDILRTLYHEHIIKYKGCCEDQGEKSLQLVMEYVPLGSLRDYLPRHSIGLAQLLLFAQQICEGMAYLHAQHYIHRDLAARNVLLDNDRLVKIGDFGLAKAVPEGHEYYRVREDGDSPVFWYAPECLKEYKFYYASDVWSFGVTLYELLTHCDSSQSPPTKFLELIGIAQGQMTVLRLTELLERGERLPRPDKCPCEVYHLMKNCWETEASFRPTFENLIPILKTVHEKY
How it was run: (§1)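 Luminescent ADP read-out after residual ATP depletion, 100 min reaction. Kinase domain concentrations were 4 nM (JAK1), 0.2 nM (JAK2), 0.3 nM (JAK3) and 2 nM (TYK2), each with 50 μM peptide. IC50 values came from 4-parameter logistic fits over 11 points, 3-fold steps, top 10 μM or 1 μM.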

[2] = target: T2, human JAK1 kinase domain (JH1) (Homo sapiens, UniProt P23458); assay: JH1 biochemical assay for JAK1 (ADP-Glo kinase assay, recombinant JH1 catalytic domain, JAK3-342 peptide, 35 μM ATP)
T2 construct: recombinantly generated catalytic kinase (also known as JH1) domain of human JAK1, JAK2, JAK3 and TYK2
T2 sequence (P23458 875-1153 limits assumed): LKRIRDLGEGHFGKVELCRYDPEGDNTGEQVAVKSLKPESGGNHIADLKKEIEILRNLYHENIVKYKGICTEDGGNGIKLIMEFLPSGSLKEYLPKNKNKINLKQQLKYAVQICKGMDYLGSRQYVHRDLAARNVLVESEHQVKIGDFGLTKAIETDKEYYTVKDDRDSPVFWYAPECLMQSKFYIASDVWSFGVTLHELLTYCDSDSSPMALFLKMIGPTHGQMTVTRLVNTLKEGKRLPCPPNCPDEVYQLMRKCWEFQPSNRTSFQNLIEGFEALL
How it was run: as §1

[3] = target: T3, human JAK2 kinase domain (JH1) (Homo sapiens, UniProt O60674); assay: JH1 biochemical assay for JAK2 (ADP-Glo kinase assay, recombinant JH1 catalytic domain, JAK3-974 peptide, 15 μM ATP)
T3 construct: recombinantly generated catalytic kinase (also known as JH1) domain of human JAK1, JAK2, JAK3 and TYK2
T3 sequence (O60674 849-1124 limits assumed): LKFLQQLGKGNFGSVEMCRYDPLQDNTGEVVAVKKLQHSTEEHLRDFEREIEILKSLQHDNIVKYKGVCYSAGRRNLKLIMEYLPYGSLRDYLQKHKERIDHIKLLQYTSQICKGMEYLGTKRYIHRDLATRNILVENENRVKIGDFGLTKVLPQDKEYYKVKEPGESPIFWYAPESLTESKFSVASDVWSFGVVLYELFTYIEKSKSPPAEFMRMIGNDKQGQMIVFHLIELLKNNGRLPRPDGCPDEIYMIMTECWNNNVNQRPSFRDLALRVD
How it was run: as §1

[4] = target: T4, human JAK3 kinase domain (JH1) (Homo sapiens, UniProt P52333); assay: JH1 biochemical assay for JAK3 (ADP-Glo kinase assay, recombinant JH1 catalytic domain, JAK3-974 peptide, 4 μM ATP)
T4 construct: recombinantly generated catalytic kinase (also known as JH1) domain of human JAK1, JAK2, JAK3 and TYK2
T4 sequence (P52333 822-1111 limits assumed): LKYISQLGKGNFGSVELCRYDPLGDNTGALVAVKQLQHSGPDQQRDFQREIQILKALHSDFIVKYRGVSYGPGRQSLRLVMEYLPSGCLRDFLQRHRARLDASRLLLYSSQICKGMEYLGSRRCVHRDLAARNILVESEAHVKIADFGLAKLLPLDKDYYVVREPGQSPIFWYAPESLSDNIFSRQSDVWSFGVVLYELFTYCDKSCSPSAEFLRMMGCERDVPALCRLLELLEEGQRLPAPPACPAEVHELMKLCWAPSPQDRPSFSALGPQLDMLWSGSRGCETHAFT
How it was run: as §1

[5] = target: Tyk2 kinase activity on STAT4 in NK92 cells (Homo sapiens, UniProt P29597); assay: pSTAT4 cell assay (MSD; NK92 cells, 30 ng/mL IL2 stimulation); format: cell-based; conditions: 30 ng/mL IL2, 15 minutes
Sequence of Tyk2 kinase activity on STAT4 in NK92 cells (P29597 whole entry): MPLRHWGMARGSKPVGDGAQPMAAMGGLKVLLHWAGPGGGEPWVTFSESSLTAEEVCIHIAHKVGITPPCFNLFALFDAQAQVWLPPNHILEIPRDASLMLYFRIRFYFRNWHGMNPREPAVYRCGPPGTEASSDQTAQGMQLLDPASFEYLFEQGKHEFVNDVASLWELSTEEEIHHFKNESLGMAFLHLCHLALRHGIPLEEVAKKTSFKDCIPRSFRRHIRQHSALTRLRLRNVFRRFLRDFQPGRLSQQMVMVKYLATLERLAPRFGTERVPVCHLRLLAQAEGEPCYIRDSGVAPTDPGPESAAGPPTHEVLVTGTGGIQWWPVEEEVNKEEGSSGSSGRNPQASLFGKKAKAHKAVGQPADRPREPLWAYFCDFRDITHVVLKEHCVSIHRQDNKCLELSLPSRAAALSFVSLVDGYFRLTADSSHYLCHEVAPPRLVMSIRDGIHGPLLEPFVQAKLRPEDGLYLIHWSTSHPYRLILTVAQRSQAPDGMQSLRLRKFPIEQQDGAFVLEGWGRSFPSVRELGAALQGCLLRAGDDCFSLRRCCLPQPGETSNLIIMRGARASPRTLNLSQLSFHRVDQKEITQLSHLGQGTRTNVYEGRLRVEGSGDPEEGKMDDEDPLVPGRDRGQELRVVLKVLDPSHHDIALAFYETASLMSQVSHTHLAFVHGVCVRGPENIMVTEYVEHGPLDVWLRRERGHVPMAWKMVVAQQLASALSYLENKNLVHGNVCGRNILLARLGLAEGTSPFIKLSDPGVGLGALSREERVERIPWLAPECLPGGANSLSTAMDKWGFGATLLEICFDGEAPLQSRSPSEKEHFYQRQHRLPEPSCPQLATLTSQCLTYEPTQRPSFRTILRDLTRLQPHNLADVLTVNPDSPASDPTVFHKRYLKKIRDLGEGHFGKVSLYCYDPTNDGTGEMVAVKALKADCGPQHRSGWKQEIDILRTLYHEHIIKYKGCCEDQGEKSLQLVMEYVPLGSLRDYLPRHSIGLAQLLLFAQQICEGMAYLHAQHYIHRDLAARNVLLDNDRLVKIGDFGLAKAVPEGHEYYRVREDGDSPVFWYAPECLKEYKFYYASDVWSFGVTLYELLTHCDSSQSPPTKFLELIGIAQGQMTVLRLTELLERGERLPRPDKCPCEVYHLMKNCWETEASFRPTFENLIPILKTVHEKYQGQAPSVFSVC
How it was run: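 Read-out: phospho-STAT in NK92 lysates, MSD format, anti-STAT4 antibodies. Cells were serum-starved, given compound for 1 hr (10 μM top, four-fold, 10 points) and IL2-stimulated (30 ng/mL, 15 min). Normalized percent activity vs log concentration, 4-parameter logistic fit gave IC50.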

[6] = target: JAK2 kinase activity on STAT5 in TF1 cells (Homo sapiens, UniProt O60674); assay: pSTAT5 cell assay (MSD; TF1 cells, 30 ng/mL IL-3 stimulation); format: cell-based; conditions: 30 ng/mL IL-3, 15 minutes
Sequence of JAK2 kinase activity on STAT5 in TF1 cells (O60674 whole entry): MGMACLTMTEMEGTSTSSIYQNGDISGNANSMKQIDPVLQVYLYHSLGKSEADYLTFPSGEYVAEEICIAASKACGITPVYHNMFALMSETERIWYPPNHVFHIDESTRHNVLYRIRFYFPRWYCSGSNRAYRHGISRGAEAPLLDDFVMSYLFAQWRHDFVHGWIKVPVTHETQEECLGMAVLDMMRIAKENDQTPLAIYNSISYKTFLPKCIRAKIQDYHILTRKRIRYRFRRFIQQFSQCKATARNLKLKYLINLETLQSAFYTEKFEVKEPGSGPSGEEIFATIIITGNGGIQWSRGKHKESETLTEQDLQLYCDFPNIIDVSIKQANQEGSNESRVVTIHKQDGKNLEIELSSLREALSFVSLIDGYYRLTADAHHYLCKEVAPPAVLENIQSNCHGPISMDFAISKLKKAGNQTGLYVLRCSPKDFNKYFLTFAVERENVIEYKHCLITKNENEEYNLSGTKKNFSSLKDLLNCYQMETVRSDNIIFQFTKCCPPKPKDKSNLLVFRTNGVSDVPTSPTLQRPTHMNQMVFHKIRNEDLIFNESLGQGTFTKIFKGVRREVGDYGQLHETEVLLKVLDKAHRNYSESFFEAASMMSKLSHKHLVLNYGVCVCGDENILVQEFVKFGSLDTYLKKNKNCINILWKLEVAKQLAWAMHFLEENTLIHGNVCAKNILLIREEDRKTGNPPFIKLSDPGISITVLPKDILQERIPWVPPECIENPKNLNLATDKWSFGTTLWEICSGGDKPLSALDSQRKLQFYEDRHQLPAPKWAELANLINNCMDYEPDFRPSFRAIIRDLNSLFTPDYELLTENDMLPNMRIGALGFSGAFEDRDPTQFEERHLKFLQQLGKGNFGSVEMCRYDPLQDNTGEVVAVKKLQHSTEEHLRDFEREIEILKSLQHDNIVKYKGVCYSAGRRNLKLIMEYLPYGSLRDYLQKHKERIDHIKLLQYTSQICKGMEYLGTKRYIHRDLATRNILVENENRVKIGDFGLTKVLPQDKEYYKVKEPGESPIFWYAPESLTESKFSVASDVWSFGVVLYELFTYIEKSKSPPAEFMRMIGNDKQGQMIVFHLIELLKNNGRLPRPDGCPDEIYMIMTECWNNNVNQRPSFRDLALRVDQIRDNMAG
How it was run: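 IC50 from a 4-parameter logistic fit of normalized pSTAT5 signal, measured by MSD in lysates of TF1 cells. Cells were serum-starved, exposed to compound for 1 h (top concentration 10 μM, four-fold, 10 points), then given IL-3 at 30 ng/mL for 15 min.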

[7] = target: JAK1 kinase activity on STAT3 in TF1 cells (Homo sapiens, UniProt P23458); assay: pSTAT3 cell assay (MSD; TF1 cells, 30 ng/mL IL-6 stimulation); format: cell-based; conditions: 30 ng/mL IL-6, 15 minutes
Sequence of JAK1 kinase activity on STAT3 in TF1 cells (P23458 whole entry): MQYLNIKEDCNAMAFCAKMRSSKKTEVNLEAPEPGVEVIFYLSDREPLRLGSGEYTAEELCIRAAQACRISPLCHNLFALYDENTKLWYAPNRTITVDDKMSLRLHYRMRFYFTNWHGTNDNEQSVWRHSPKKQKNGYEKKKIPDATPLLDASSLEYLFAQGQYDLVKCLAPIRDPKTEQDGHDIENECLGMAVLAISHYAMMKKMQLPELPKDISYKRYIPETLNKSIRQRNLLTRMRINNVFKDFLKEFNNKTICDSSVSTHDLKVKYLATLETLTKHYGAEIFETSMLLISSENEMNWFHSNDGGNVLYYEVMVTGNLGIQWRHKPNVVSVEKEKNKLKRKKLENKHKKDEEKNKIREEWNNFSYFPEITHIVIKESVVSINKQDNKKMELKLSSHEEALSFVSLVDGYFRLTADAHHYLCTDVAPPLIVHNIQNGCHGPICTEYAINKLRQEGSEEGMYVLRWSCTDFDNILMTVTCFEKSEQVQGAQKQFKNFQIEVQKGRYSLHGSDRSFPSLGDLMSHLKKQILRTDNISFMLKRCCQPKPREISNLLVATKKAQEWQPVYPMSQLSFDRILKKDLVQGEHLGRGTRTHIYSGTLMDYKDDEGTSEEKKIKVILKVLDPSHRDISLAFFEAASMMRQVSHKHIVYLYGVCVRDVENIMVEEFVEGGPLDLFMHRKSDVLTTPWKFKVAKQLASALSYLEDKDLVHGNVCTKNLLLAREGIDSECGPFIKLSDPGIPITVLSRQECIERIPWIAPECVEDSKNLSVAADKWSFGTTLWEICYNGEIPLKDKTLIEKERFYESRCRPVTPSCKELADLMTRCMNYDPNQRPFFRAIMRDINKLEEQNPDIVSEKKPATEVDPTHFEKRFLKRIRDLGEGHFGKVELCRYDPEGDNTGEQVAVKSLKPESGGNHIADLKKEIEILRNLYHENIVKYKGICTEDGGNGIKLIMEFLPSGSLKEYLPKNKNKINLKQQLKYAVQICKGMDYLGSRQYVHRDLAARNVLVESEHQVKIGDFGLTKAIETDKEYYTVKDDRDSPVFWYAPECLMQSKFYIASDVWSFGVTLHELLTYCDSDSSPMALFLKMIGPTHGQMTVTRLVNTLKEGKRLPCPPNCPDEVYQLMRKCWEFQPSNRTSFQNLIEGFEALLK
How it was run: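 Serum starvation, 1 h compound (10 pt, 4-fold from 10 μM), IL-6 15 min, lysis. pSTAT3 read by MSD immunoassay, anti-STAT3 Abs. Normalized % activity vs log[cpd], 4-PL fit → IC50.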

CC(C)n1cc(-c2cc3c(N4C[C@@H](C)[C@@](C#N)(C5CC5)C4=O)ccnn3c2)cn1 [Example 167, (3R,4S)-3-cyclopropyl-1-(6-(1-isopropyl-1H-pyrazol-4-yl)pyrrolo[1,2-b]pyridazin-4-yl)-4-methyl-2-oxopyrrolidine-3-carbonitrile]
IC50 ([1]; JH1 kinase domain, ADP-Glo): < 5 nM | IC50 ([2]; JH1 kinase domain, ADP-Glo): < 100 nM | IC50 ([3]; JH1 kinase domain, ADP-Glo): < 100 nM | IC50 ([4]; JH1 kinase domain, ADP-Glo): < 100 nM | IC50 [5]: 20 to 50 nM | IC50 [6]: 1000 to 5000 nM | IC50 [7]: 100 to 1000 nM

Cc1cnn2cc(-c3cnn(C)c3)nc(N3C[C@@H](C)[C@@](C#N)(C4CC4)C3=O)c12 [Example 186, (3R,4S)-3-cyclopropyl-4-methyl-1-(3-methyl-6-(1-methyl-1H-pyrazol-4-yl)pyrazolo[1,5-a]pyrazin-4-yl)-2-oxopyrrolidine-3-carbonitrile]
IC50 ([1]; JH1 kinase domain, ADP-Glo): 50 to 100 nM | IC50 ([2]; JH1 kinase domain, ADP-Glo): 1000 to 5000 nM | IC50 ([3]; JH1 kinase domain, ADP-Glo): 1000 to 5000 nM | IC50 ([4]; JH1 kinase domain, ADP-Glo): 100 to 1000 nM | IC50 [5]: > 100 nM | IC50 [6]: > 10000 nM | IC50 [7]: > 10000 nM

C[C@@H]1CN(c2nc(-c3ccn(C)c(=O)c3)cn3nccc23)C(=O)[C@]1(C#N)C1CC1 [Example 261, (3R,4S)-3-cyclopropyl-4-methyl-1-(6-(1-methyl-2-oxo-1,2-dihydropyridin-4-yl)pyrazolo[1,5-a]pyrazin-4-yl)-2-oxopyrrolidine-3-carbonitrile trifluoroacetate]
IC50 ([1]; TYK2 JH1, ADP-Glo): < 5 nM | IC50 ([2]; JAK1 JH1, ADP-Glo): 100 to 1000 nM | IC50 ([3]; JAK2 JH1, ADP-Glo): 100 to 1000 nM | IC50 ([4]; JAK3 JH1, ADP-Glo): < 100 nM | IC50 [5]: > 100 nM | IC50 [6]: 1000 to 5000 nM | IC50 [7]: 1000 to 5000 nM

C[C@@H]1CN(c2nc(-c3cnn([C@H]4C[C@H](C#N)C4)c3)cn3ncc(F)c23)C(=O)[C@]1(C#N)C1CC1 [Example 293, (3R,4S)-1-(6-(1-((1r,3R)-3-cyanocyclobutyl)-1H-pyrazol-4-yl)-3-fluoropyrazolo[1,5-a]pyrazin-4-yl)-3-cyclopropyl-4-methyl-2-oxopyrrolidine-3-carbonitrile]
IC50 ([1]; TYK2 JH1, ADP-Glo): < 5 nM | IC50 ([2]; JAK1 JH1, ADP-Glo): < 100 nM | IC50 ([3]; JAK2 JH1, ADP-Glo): < 100 nM | IC50 ([4]; JAK3 JH1, ADP-Glo): < 100 nM | IC50 [5]: 20 to 50 nM | IC50 [6]: 100 to 1000 nM | IC50 [7]: 100 to 1000 nM

C[C@@H]1CN(c2ccnn3cc(-c4c[nH]c5ncccc45)cc23)C(=O)[C@]1(C#N)C1CC1 [Example 72, (3R,4S)-1-(6-(1H-pyrrolo[2,3-b]pyridin-3-yl)pyrrolo[1,2-b]pyridazin-4-yl)-3-cyclopropyl-4-methyl-2-oxopyrrolidine-3-carbonitrile]
IC50 ([1]; JH1 kinase domain, ADP-Glo): 5 to 20 nM | IC50 ([2]; JH1 kinase domain, ADP-Glo): 100 to 1000 nM | IC50 ([3]; JH1 kinase domain, ADP-Glo): 100 to 1000 nM | IC50 ([4]; JH1 kinase domain, ADP-Glo): 100 to 1000 nM | IC50 [5]: > 100 nM | IC50 [6]: 5000 to 10000 nM | IC50 [7]: 1000 to 5000 nM

Cn1cc(-c2cc3c(N4CC[C@@](C#N)(C5CC5)C4=O)ccnn3c2)cn1 [Example 9, (S)-3-cyclopropyl-1-(6-(1-methyl-1H-pyrazol-4-yl)pyrrolo[1,2-b]pyridazin-4-yl)-2-oxopyrrolidine-3-carbonitrile]
IC50 ([1]; JH1 kinase domain, ADP-Glo): 5 to 20 nM | IC50 ([2]; JH1 kinase domain, ADP-Glo): 100 to 1000 nM | IC50 ([3]; JH1 kinase domain, ADP-Glo): 100 to 1000 nM | IC50 ([4]; JH1 kinase domain, ADP-Glo): 100 to 1000 nM | IC50 [5]: > 100 nM | IC50 [6]: 5000 to 10000 nM | IC50 [7]: 1000 to 5000 nM

C[C@@H]1CN(c2nc(-c3cnn([C@H]4C[C@@](C)(O)C4)c3)cn3ncc(F)c23)C(=O)[C@]1(C#N)C1CC1 [Example 301, (3R,4S)-3-cyclopropyl-1-(3-fluoro-6-(1-((1s,3 S)-3-hydroxy-3-methylcyclobutyl)-1H-pyrazol-4-yl)pyrazolo[1,5-a]pyrazin-4-yl)-4-methyl-2-oxopyrrolidine-3-carbonitrile]
IC50 ([1]; TYK2 JH1, ADP-Glo): < 5 nM | IC50 ([2]; JAK1 JH1, ADP-Glo): < 100 nM | IC50 ([3]; JAK2 JH1, ADP-Glo): < 100 nM | IC50 ([4]; JAK3 JH1, ADP-Glo): < 100 nM | IC50 [5]: 50 to 100 nM | IC50 [6]: 100 to 1000 nM | IC50 [7]: 100 to 1000 nM

C[C@@H]1CN(c2ccnn3cc(-c4cnc5cc(C#N)ccn45)cc23)C(=O)[C@]1(C#N)C1CC1 [Example 103, 3-(4-((3R,4S)-3-cyano-3-cyclopropyl-4-methyl-2-oxopyrrolidin-1-yl)pyrrolo[1,2-b]pyridazin-6-yl)imidazo[1,2-a]pyridine-7-carbonitrile trifluoroacetate]
IC50 ([1]; JH1 kinase domain, ADP-Glo): 5 to 20 nM | IC50 ([2]; JH1 kinase domain, ADP-Glo): > 10000 nM | IC50 ([3]; JH1 kinase domain, ADP-Glo): > 10000 nM | IC50 ([4]; JH1 kinase domain, ADP-Glo): > 10000 nM | IC50 [5]: > 100 nM | IC50 [6]: > 10000 nM | IC50 [7]: > 10000 nM

Reference: patent US20260297085A1, “1 H-PYRROLO[2,3-B]PYRIDIN-4-YL]-2-OXOPYRROLIDINE-3-CARBONITRILE DERIVATIVES AS TYROSINE KINASE 2 (TYK2) INHIBITORS FOR THE TREATMENT OF INFLAMMATORY DISEASES” (BIOGEN MA INC., priority 2023, published 2026)
